Reference: paper PMC2912279, “Calycosin Promotes Angiogenesis Involving Estrogen Receptor and Mitogen-Activated Protein Kinase (MAPK) Signaling Pathway in Zebrafish and HUVEC” (PLoS ONE, 2010)

Assays:
[1] = test system: subintestinal vein vessels (SIVs) of Tg(fli1:EGFP) zebrafish embryos; experiment: Blood vessel formation (SIV diameter/morphology) in Tg(fli1:EGFP) zebrafish embryos; format: in vivo; settings: for angiogenic effect in SIVs, comparison with classical SERMs: raloxifene 10 µM, tamoxifen 3 µM, 17-βEstradiol 10 µM, calycosin 100 µM
Experimental: Zebrafish embryos were generated by natural pair-wise mating (3–12 months old) and were raised at 28.5°C in embyro water. Healthy, hatched zebrafish were picked out at 3 dpf and distributed into a 12-well microplate with 10 to 15 fish in each well. […] Embryos receiving DMSO (0.1%) served as vehicle controls and were equivalent to no treatment. Each experiment was repeated at least three times, with 30 embryos per group. VTKI was dissolved in DMSO as stock. Zebrafish embryos, Tg(fli-1:EGFP) and Tg(fli-1:nEGFP), were treated with inhibitor dissolved in embryo water from 3 dpf at the concentration indicated, controlled by DMSO treated embryos. Embryos were maintained using standard methods.
(§1) At 96 hpf, zebrafish were removed from microplates and observed for viability and gross morphological changes under a fluorescence microscope (Olympus IX81 Motorized Inverted Microscope, Japan) equipped with a digital camera (DP controller, Soft Imaging System, Olympus). Images were analyzed with Axiovision 4.2 and Adobe Photoshop 7.0.
Three random points in SIVs of Tg(fli1:EGFP) zebrafish embryos were chosen for vessel diameter measurement using AxiovisionLE 4.1. Numbers of endothelial cells in SIVs of Tg(fli1:nEGFP) zebrafish embryos were assessed by direct counting of the total number of green light points. Each green light point represents one endothelial cell (GFP+).

HUVEC = HUVEC viability/proliferation by XTT assay; format: cell-based, Human; settings: P<0.05
ERK1/2 = experiment: Western blotting of phospho-ERK1/2 in HUVEC; format: cell-based, Human
[2] = test system: endothelial cells in SIVs of Tg(fli1:nEGFP) zebrafish embryos; experiment: Endothelial cell number in SIVs of Tg(fli1:nEGFP) zebrafish embryos; format: in vivo; settings: calycosin 10, 30, 100 µM, 72 hpf for 24 h; SIV region
Experimental: Zebrafish embryos were generated by natural pair-wise mating (3–12 months old) and were raised at 28.5°C in embyro water. Healthy, hatched zebrafish were picked out at 3 dpf and distributed into a 12-well microplate with 10 to 15 fish in each well. Different concentrations (10, 30, 100 µM) of calycosin, raloxifene or tamoxifen solutions were then added to wells and incubated at 28°C for 24 h. Embryos receiving DMSO (0.1%) served as vehicle controls and were equivalent to no treatment. Each experiment was repeated at least three times, with 30 embryos per group. VTKI was dissolved in DMSO as stock. Zebrafish embryos, Tg(fli-1:EGFP) and Tg(fli-1:nEGFP), were treated with inhibitor dissolved in embryo water from 3 dpf at the concentration indicated, controlled by DMSO treated embryos. […]
as §1
Three random points in SIVs of Tg(fli1:EGFP) zebrafish embryos were chosen for vessel diameter measurement using AxiovisionLE 4.1. Numbers of endothelial cells in SIVs of Tg(fli1:nEGFP) zebrafish embryos were assessed by direct counting of the total number of green light points. […]

[3] = test system: VEGFA, VEGFR1, Flk1A, Flk1B mRNA; experiment: mRNA expression in calycosin treated zebrafish by real-time PCR; format: in vivo; settings: 100 µM, 6 h
Experimental: Zebrafish embryos at 72 hpf were treated with calycosin for 6 h. Total RNA was extracted from 30 zebrafish embryos of each treatment group using the RNeasy Mini Kit (Qiagen, USA) in accordance with the manufacturer's instructions. RNA was reverse transcribed to single-strand cDNA using SuperScript™ III First-Strand Synthesis System for RT–PCR (Invitrogen™, USA), followed by real-time PCR using the TaqMan® Universal PCR Master Mix and 250 nM custom TaqMan primers for zebrafish Flk1A, Flk1B, VEGFR1, VEGFA2 (Applied Biosystems, USA) in the ABI 7500 Real-Time PCR System (Applied Biosystems). The expression of Flk1A, VEGFA2 mRNA was normalized to the amount of bactin1, using the relative quantification method described by the manufacturer.
The zebrafish bactin1 primers were 5′-[…]-3′ (F) and 5′-[…]-3′(R) (Applied Biosystems, USA).
The zebrafish Flk1A (kdrl) primers were 5′- […]-3′ (F) and 5′- […]-3′(R) (Applied Biosystems, USA).
The zebrafish Flk1B (kdr) primers were 5′- […]-3′ (F) and 5′-[…]-3′(R) (Applied Biosystems, USA).
The zebrafish FLT1 primers were 5′-[…]-3′ (F) and 5′-[…]-3′(R) (Applied Biosystems, USA).
The zebrafish VEGFA2 primers were 5′-[…]-3′ (F) and 5′-[…]-3′ (R) (Applied Biosystems, USA).

ERα [4] = molecular target: T1, ERα (Homo sapiens, UniProt P03372); experiment: ER fluorescence polarization competitive binding assay (Fluormone ES2 displacement), ERα
T1 construct: purchased Invitrogen
T1 sequence (P03372 1-595): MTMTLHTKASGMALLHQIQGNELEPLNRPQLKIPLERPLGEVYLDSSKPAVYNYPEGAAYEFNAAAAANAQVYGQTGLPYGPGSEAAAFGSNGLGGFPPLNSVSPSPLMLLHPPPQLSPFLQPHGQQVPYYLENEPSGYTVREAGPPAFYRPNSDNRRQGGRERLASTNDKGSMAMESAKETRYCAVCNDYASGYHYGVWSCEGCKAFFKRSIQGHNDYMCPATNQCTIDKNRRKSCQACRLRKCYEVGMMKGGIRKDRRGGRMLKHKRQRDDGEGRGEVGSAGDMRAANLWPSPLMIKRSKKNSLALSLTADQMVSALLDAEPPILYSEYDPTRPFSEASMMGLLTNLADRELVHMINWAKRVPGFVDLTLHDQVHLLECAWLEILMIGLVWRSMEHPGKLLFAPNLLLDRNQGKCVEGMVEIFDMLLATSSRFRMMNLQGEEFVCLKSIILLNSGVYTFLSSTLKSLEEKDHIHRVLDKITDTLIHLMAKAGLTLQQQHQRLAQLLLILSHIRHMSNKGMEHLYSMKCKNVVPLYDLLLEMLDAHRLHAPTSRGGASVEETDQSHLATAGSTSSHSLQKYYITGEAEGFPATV
Experimental: (§2) The binding affinity of calycosin to ER-α and β was evaluated by the commercially available competitor assay (Invitrogen, Carlasbad, CA) according to the manufacturer's instructions. In brief, ER was added to fluorescently tagged ER ligand (Fluormone™ ES2) to form ER/Fluormone™ ES2 complexes with a high fluorescent polarization value. Displacement of fluorescently tagged ligands by unlabeled ligands decreased fluorescent polarization, resulting in a low value. In this system, changes in intensity of polarization reflect displacement of fluorescently tagged ligands. […] Plates were incubated at room temperature for 2 h and fluorescent polarization values measured using a Multilabel Counter (Perkin Elmer, Singapore).

ERβ [5] = molecular target: T2, ERβ (Homo sapiens, UniProt Q92731); experiment: biochemical
Experimental: as §2
Target sequence in this assay (Q92731 whole entry): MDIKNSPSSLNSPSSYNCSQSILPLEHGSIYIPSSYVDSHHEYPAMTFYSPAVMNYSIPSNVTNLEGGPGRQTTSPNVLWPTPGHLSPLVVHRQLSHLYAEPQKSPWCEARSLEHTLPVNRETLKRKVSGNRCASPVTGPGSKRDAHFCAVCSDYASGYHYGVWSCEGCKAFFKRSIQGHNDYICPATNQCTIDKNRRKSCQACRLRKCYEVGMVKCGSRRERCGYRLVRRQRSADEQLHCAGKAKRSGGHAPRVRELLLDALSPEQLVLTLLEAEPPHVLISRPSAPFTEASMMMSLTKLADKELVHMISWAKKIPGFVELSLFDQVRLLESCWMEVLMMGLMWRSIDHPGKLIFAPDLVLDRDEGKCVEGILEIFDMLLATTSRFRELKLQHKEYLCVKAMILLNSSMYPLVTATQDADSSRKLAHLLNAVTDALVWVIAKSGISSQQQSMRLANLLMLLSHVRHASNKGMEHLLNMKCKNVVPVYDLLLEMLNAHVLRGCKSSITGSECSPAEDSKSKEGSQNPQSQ

ERβ [6] = molecular target: T2, ERβ; settings: percentage of maximum activation induced by 17-β-estradiol (10 µM)
Target sequence in this assay (Q92731 264-498 limits assumed): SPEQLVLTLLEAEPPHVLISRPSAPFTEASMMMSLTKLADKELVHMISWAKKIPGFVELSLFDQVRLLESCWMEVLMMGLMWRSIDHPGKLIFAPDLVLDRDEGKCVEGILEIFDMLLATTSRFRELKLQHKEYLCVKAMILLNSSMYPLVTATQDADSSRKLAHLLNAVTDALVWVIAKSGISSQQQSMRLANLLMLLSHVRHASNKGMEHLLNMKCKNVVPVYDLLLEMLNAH

ERβ [7] = molecular target: T2, ERβ
Target sequence in this assay (Q92731 264-498 limits assumed): as above

ERα [8] = molecular target: T3, ERα (Homo sapiens, UniProt P03372); experiment: GeneBLAzer β-lactamase reporter-gene assay, agonist activity, ERα-UAS-bla GripTite cells
T3 sequence (P03372 311-547 limits assumed): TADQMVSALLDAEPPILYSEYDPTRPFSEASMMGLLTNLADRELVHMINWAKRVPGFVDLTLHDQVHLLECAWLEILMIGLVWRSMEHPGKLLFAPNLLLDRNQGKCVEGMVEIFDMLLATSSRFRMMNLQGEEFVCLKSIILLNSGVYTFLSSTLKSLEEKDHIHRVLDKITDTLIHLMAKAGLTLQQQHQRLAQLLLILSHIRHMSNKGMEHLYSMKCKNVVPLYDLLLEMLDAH

ERα [9] = molecular target: T3, ERα; experiment: GeneBLAzer β-lactamase reporter-gene assay, antagonist activity against E2, ERα-UAS-bla GripTite cells; settings: in presence of EC80 of 17-β-estradiol
zebrafish embryos = experiment: Toxicity (highest non-toxic dose) in zebrafish embryos; format: in vivo; settings: 72 hpf for 24 h
Experimental: Zebrafish embryos were generated by natural pair-wise mating (3–12 months old) and were raised at 28.5°C in embyro water. Healthy, hatched zebrafish were picked out at 3 dpf and distributed into a 12-well microplate with 10 to 15 fish in each well. Different concentrations (10, 30, 100 µM) of calycosin, raloxifene or tamoxifen solutions were then added to wells and incubated at 28°C for 24 h. Embryos receiving DMSO (0.1%) served as vehicle controls and were equivalent to no treatment. Each experiment was repeated at least three times, with 30 embryos per group. VTKI was dissolved in DMSO as stock. Zebrafish embryos, Tg(fli-1:EGFP) and Tg(fli-1:nEGFP), were treated with inhibitor dissolved in embryo water from 3 dpf at the concentration indicated, controlled by DMSO treated embryos. Embryos were maintained using standard methods.
as §1

Compound: O=C(Nc1ccc(Cl)cc1)c1ccccc1NCc1ccncc1 [VRI]
- effect on calycosin-induced angiogenesis (SIV diameter and endothelial cell number) ([1]; VRI 100 ng/ml with calycosin 100 µM, 72 hpf for 24 h): sufficient to reverse the calycosin-induced angiogenic effects to control levels
- effect on angiogenesis in zebrafish embryonic development, inhibitor alone, low concentration ([1]; VRI 100 ng/ml, 72 hpf for 24 h): no effect
- effect on angiogenesis in zebrafish embryonic development, inhibitor alone, high concentration ([1]; VRI 1 µg/ml, 72 hpf for 24 h): caused significant (P<0.001) defects in angiogenesis

Compound: C[C@]12CC[C@@H]3c4ccc(O)cc4C[C@@H](CCCCCCCCC[S+]([O-])CCCC(F)(F)C(F)(F)F)[C@H]3[C@@H]1CC[C@@H]2O (stereo partly drawn) [ICI182, 780, reference compound]
- reduction of calycosin-induced HUVEC proliferation (HUVEC; pre-treatment with ER inhibitor 30 µM before calycosin 100 µM): 40%
- effect on calycosin-induced phosphorylation of ERK1/2 (ERK1/2; ICI182, 780 30 µM, calycosin 100 µM): suppressed phosphorylation of ERK1/2 to control levels

Compound: COc1ccc(-c2coc3cc(O)ccc3c2=O)cc1O [calycosin]
- diameter of SIVs ([1]; calycosin 10, 30, 100 µM, 72 hpf to 96 hpf, vs 0.1% DMSO control, P<0.05 and P<0.001): increased in a dose-dependent manner
- angiogenic effect in SIVs, comparison with classical SERMs ([1]; 72 hpf for 24 h): significant angiogenic effect
- increase in endothelial cells population compared with the control [2]: approximately 1.5 times
- VEGFA mRNA expression level compared to the control ([3]; embryos at 72 hpf, increase trend): 1.2 fold
- Flk1A mRNA expression increase ([3]; P<0.001): 0.8 fold
- Flk1B mRNA expression increase ([3]; P<0.001): 0.9 fold
- VEGFR1 mRNA expression increase ([3]; P<0.001): 1.1 fold
- IC50 value relative to that of E2 (higher) (ERα [4]; binding to ERα and ERβ): approximately 10^4 fold
- IC50 (ERα [4]; displacement of Fluormone ES2, 2 h room temperature): 58.1 µM
- IC50 (ERβ [5]): 32.4 µM
- promotion of HUVEC proliferation (HUVEC; calycosin 100 µM, Fig. 9A experiment): 67%
- time at which phosphorylation of ERK1/2 reached a plateau (ERK1/2; calycosin 100 µM): 30 to 60 min
- phosphorylation of ERK1/2, concentration dependence (ERK1/2; calycosin 10, 30, 100 µM for 30 min, maximum at 100 µM): enhanced in a dose-dependent manner
- maximum agonistic activity at ERβ (ERβ [6]): 8.6%
- reduction in IC50 value at ERβ compared with ERα (ERβ [7]): 2 fold
- increase in maximal inhibition at ERβ compared with ERα (ERβ [7]; antagonist activity assay): 2 fold
- maximum inhibition against E2 at ERβ (ERβ [7]; in presence of EC80 of 17-β-estradiol): 82%
- EC50 (ERα [8]): 2.47 µM
- increase in maximal activation at ERα compared with ERβ (ERα [8]; agonist activity assay): 2 fold
- reduction in EC50 value at ERα compared with ERβ (ERα selectivity) (ERα [8]; agonist activity assay): 2 fold
- maximum agonistic activity at ERα (ERα [8]; percentage of maximum activation induced by 17-β-estradiol (10 µM)): 14.6%
- maximum inhibition against E2 at ERα (ERα [9]): 46%

Compound: O=C(c1ccc(OCCN2CCCCC2)cc1)c1c(-c2ccc(O)cc2)sc2cc(O)ccc12 [raloxifene]
- angiogenic effect in SIVs, comparison with classical SERMs ([1]; 72 hpf for 24 h): no obvious changes
- highest non-toxic dose in zebrafish embryos (zebrafish embryos): 10 µM

Compound: C[C@]12CC[C@@H]3c4ccc(O)cc4CC[C@H]3[C@@H]1CC[C@@H]2O [E2, 17-β-estradiol]
- angiogenic effect in SIVs, comparison with classical SERMs ([1]; 72 hpf for 24 h): no obvious changes
- highest non-toxic dose in zebrafish embryos (zebrafish embryos): 10 µM

Compound: CC/C(=C(\c1ccccc1)c1ccc(OCCN(C)C)cc1)c1ccccc1 [tamoxifen]
- angiogenic effect in SIVs, comparison with classical SERMs ([1]; 72 hpf for 24 h): no obvious changes
- highest non-toxic dose in zebrafish embryos (zebrafish embryos): 3 µM
